The nature of the series: In vitro drug release from drug-loaded titania nanotube arrays (TNAs) in PBS at 37° C. The class given is physicochemical. As for the experimental part: A total of 500 μL of DEX solution was pipetted onto the nanotube surface (pipetting 100 μL for 5 times) and allowed to dry in fume hood for an hour, ensuring that the nanotube array surface was completely dry prior to each pipetting and the release studies. Then, DEX-loaded TNA samples were immersed in Eppendorf tubes containing 100 μL of PBS (1× phosphate buffered saline) and were placed in a water bath kept at 37° C. For release measurements, all 100 μL from each releasing sample tube was transferred to a 96-well plate and measured using a SpectraMax M 2 Microplate Reader. The absorption of DEX was measured at 244 nm. After each measurement, the releasing medium was fully replaced with […] of fresh PBS.

[1] abbreviates: 37° C., TNAs on polyimide and foil substrates.
The mark [2] stands for this setting: 37° C., TNAs on polyimide and foil substrates, PBS.

SMILES strings stand for the structures.

With `C[C@@H]1C[C@H]2[C@@H]3CCC4=CC(=O)C=C[C@]4(C)[C@@]3(F)[C@@H](O)C[C@]2(C)[C@@]1(O)C(=O)COP(=O)(O)O` [Dexamethasone, dexamethasone sodium phosphate], the “burst after contacting the PBS” value under setting [1] is given as “no indication of a large burst”. The release profile result runs as follows: under setting [2], “linear”; (37° C., ~0.5 μm-deep, 100 nm-diameter TNAs on polyimide) “linear”. Where the note is “nanotube diameters within the 30 nm-100 nm range”, the “relationship between nanotube diameter and release rate” value is “weak relationship”. For the setting “normal pipetting vs soaking”, the “difference in release data between the two drug loading methods” value is on record as “No significant difference”.
On to `Oc1ccc(C=Cc2cc(O)cc(O)c2)cc1` [Resveratrol], for which the “burst after contacting the PBS” value under setting [1] was “no indication of a large burst”. For the same compound, under setting [2], the “duration of linear release” value is reported as “several weeks” and the release profile entry is given as “linear”. Under “TNA 2 micron long, 30 nm pore size, 37° C. (FIG. 6B)”, the “duration of sustained release” value is given as “nearly one month”.

Values taken from patent US20260151620A1, “IMPLANT MEDICAL DEVICES” (Case Western Reserve University, priority 2021, published 2026).
